PubChem BioAssay AID1996
≈ marks a conversion by molar mass, not a printed value.

Settings: buffer; pH 7.4; 200.0 µM

| SMILES | solubility kinetic [µg/mL] |
| --- | --- |
| COc1ccc(OC2CCN(S(=O)(=O)c3ccccc3)CC2)cc1 | 4.8 (≈ 13.8 µM) |
| O=C(COc1ccc(Cl)cc1)Nc1ccccc1Cl | < 0.6 |
| Cc1ccc(S(=O)(=O)NCC(=O)OCC(=O)N2CC(=O)Nc3ccccc32)cc1 | > 62.6 |
| CCN(CCO)C(=S)Nc1cc(S(=O)(=O)N(C)C)ccc1C | > 51.8 |
| Cl.NCc1ccccc1CS(=O)(=O)N1CCOCC1 | > 46 |
| COc1cccc(NC(=S)NCc2ccc(F)cc2)c1 | 37.9 (≈ 131 µM) |
| CCOc1ccc(C(=O)NCc2ccco2)cc1OC | 37.7 (≈ 137 µM) |
| CCOc1cccc(/C=C/c2ccc3cccc(O)c3n2)c1OC | < 0.7 |
| O=C(O)CC1(CC(=O)Nc2ccc(C(F)(F)F)cc2)CCCC1 | > 49.4 |
| Cc1ccc(S(=O)(=O)CCc2nc3ccccc3[nH]2)cc1C | > 47.2 |
| Cc1cc(C)c2c(n1)sc1c(=O)n(CC(=O)c3ccccc3)cnc12 | < 0.2 |
| O=C(O)c1ccccc1CSc1nc2ccccc2[nH]1 | > 42.6 |
| Cc1ccc(/C=C(\C#N)C(=O)NC(C)C)o1 | > 32.7 |
| Cn1cc(C(=O)NCC(=O)Nc2ccccc2Br)cn1 | > 50.6 |
| N/C(=N\OC(=O)c1ccc([N+](=O)[O-])cc1Cl)c1ccccn1 | 12.8 (≈ 39.9 µM) |
| [O-][n+]1c(/C=C/c2ccccc2)ccc2ccccc21 | > 37.1 |
| Cc1ccc(S(=O)(=O)CC(O)COc2ccccc2C#N)cc1 (stereo unspecified) | > 49.7 |
| C=CCNC(=S)N1CCC(C(=O)c2ccc(F)cc2)CC1 | > 46 |
| Cc1ccc(/C=C2\C(=O)NC(=S)N(c3cccc(F)c3)C2=O)o1 | 43.1 (≈ 130 µM) |
| CS(=O)(=O)N1CCSC1c1ccc(Br)cc1 (stereo unspecified) | 47.8 (≈ 148 µM) |
| CCC(OC(=O)c1nsc(Cl)c1Cl)C(=O)NC(C)(C)C (stereo unspecified) | 46.6 (≈ 137 µM) |

| SMILES | solubility kinetic [µg/mL] |
| --- | --- |
| Cc1cccc(C)c1NC(=O)CCn1cnc2ccccc2c1=O | > 48.2 |
| Cc1ccc(-c2cc(C(=O)N3CC4(C)CC3CC(C)(C)C4)no2)cc1 (stereo unspecified) | < 0.4 |
| C=CCNC(=S)N(Cc1ccccc1)Cc1ccc(F)cc1 | 14 (≈ 44.5 µM) |
| CCCCNC(=O)C1CCN(c2nc(C)cc(C)n2)CC1 | 8.9 (≈ 30.6 µM) |
| COc1ccc(NC(=O)c2ccc3c(c2)NC(=O)CS3)cc1 | 10.8 (≈ 34.4 µM) |
| CCC(C)(C(=O)NC1CCCC1)N(C)C(=O)c1ccccn1 (stereo unspecified) | > 45.5 |
| CCOc1ccc(CNc2nc3ccccc3n2C)cc1 | > 42.2 |
| CCOC(=O)C1C2C=CC3(CN(Cc4ccccc4)C(=O)C13)O2 (stereo unspecified) | > 47 |
| Cc1cccc(-c2nnc(SCC(=O)N3CCCC3)o2)c1 | > 45.5 |
| CC(C)c1ccc(CN2CCSCC2)cc1 | 1.1 (≈ 4.67 µM) |
| CCN1CCN(CC2COc3ccccc3O2)CC1.Cl (stereo unspecified) | > 50.3 |
| O=C(Nc1nccs1)C1(c2ccc(Cl)cc2)CC1 | 14.2 (≈ 50.9 µM) |
| O=[N+]([O-])c1ccc(NCCCN2CCOCC2)c2ncccc12 | 2.5 (≈ 7.9 µM) |
| Cc1cnc(C(=O)NC(Cc2ccccc2)c2ccccc2)cn1 (stereo unspecified) | 0.9 (≈ 2.84 µM) |
| Br.CN(/N=C/c1ccncc1)C1=NCCN1 | > 42.6 |
| CCC(C)c1ccc(NC(=S)N2CCCC2)cc1 (stereo unspecified) | > 39.4 |
| CCOC(=O)c1c[nH]c2ccc3ccccc3c2c1=O | 10.3 (≈ 38.5 µM) |
| COc1ccc(Cc2nnc(-c3ccccc3)o2)cc1 | > 39.9 |
| COc1ccc(OCc2nc(-c3ccc(F)c(F)c3)cs2)cc1 | < 0.7 |
| O=C(Nc1ccc(Cl)cn1)C1COc2ccccc2O1 (stereo unspecified) | 2 (≈ 6.88 µM) |
| O=C(Nc1ccc(S(=O)(=O)N2CCCCC2)cc1)C1CCCO1 (stereo unspecified) | 39.9 (≈ 118 µM) |

| SMILES | solubility kinetic [µg/mL] |
| --- | --- |
| CCOC(=O)c1csc(NC(=O)c2cc(-c3ccccn3)nc3ccccc23)n1 | 1 (≈ 2.47 µM) |
| CC(Sc1ncccn1)C(=O)NC1CCCC1 (stereo unspecified) | > 37.7 |
| Cc1ccc(/C=C/C(=O)Nc2cc(S(N)(=O)=O)ccc2O)cc1 | 42.2 (≈ 127 µM) |
| COc1ccc(Nc2ncnc3sccc23)c(OC)c1 | 25.1 (≈ 87.4 µM) |
| O=C(Nc1nc(-c2ccc(F)cc2)cs1)c1cccnc1 | 0.6 (≈ 2 µM) |
| CSc1ncc(C(=O)Nc2cc(C)ccc2C)c(C)n1 | > 43.1 |
| O=C(CCc1ccccc1)Nc1cccnc1 | > 33.9 |
| COc1ccccc1NC(=O)c1c(O)c2ccccc2[nH]c1=O | 1.2 (≈ 3.87 µM) |
| COC(=O)C1CCN(C(=O)COc2ccc(S(=O)(=O)N3CCOCC3)cc2Cl)CC1 | > 69.1 |
| O=C1CSC(=S)N1c1cccc(Br)c1 | 2.9 (≈ 10.1 µM) |
| Cc1ccc2c(c1)N(CC(=O)N1CCCC1)C(=O)C(C)O2 (stereo unspecified) | > 43.3 |
| COc1cccc(OCc2nc(-c3ccc(Br)o3)no2)c1 | 7.1 (≈ 20.2 µM) |
| Cc1ccc(S(=O)(=O)NC(Cc2ccccc2)C(=O)O)cc1 (stereo unspecified) | > 47.9 |
| O=C(CSc1ccccc1)Nc1ccc2c(c1)OCO2 | 41.8 (≈ 145 µM) |
| CC(C)[C@H](NC(=O)c1ccccc1)C(=O)OCC(=O)Nc1sccc1C(N)=O | 19 (≈ 47.1 µM) |
| N#Cc1cnn(-c2ccc(F)cc2)c1N | > 30.3 |
| Cc1ccc(CNC(=O)CSc2nc(C)cs2)cc1 | > 43.9 |
| Cc1onc(-c2c(F)cccc2Cl)c1C(=O)NCCN1CCNC1=O | > 55 |
| O=C1C(=O)c2ccccc2C(O)=C1c1cccc([N+](=O)[O-])c1 | > 44.3 |
